Reference: patent US12503432B2, “Ionizable lipids for nucleic acid delivery” (Global Life Sciences Solutions Canada ULC, priority 2019, dated 2025)

Columns and labels:
primary human T cells = assay: GFP mRNA LNP transfection of isolated primary human T cells, flow cytometry; assay type: cell-based; set-up: key to GFP Protein expression: Human T cell: *: The number of asterix symbols indicates protein expression levels interpreted by the inventors from quantitative data; **: The number of asterix symbols indicates protein expression levels interpreted by the inventors from quantitative data; ***: The number of asterix symbols indicates protein expression levels interpreted by the inventors from quantitative data; ****: The number of asterix symbols indicates protein expression levels interpreted by the inventors from quantitative data; *****: The number of asterix symbols indicates protein expression levels interpreted by the inventors from quantitative data; *******: The number of asterix symbols indicates protein expression levels interpreted by the inventors from quantitative data; details: for GFP Protein expression: Human T cell: qualitative grade interpreted from quantitative data; for transfecting T cells in vitro, Mean Fluorescence Intensity (MFI): dose 500 ng, MC3 as control, FIG. 3
Experimental: Downstream processing and analysis of treated T cells were done with flow cytometry and ELISA. Reagents were from Stemcell Technologies, Vancouver, Canada unless otherwise stated. […] At 48H following LNP-mediated mRNA exposure, the treated T cells were harvested by transferring the cell suspensions to pre-labeled 1.5 mL tubes and centrifuged 300×G at 4 degrees C. for 10 minutes. Supernatant was removed and the pellet resuspended in PBS. An amount of 0.5 ul of BD Horizon™ Fixable Viability Stain 575V™ (BD Biosciences), was added, and the mixture incubated in the dark for 10 minutes at RT. This stain binds to intracellular amines of a permeable plasma cell membrane of a necrotic cell and can be used to differentiate a viable cell and a non-viable cell during a flow cytometry assay.
The cells were centrifuged again as before, then washed twice with 1 mL of Stain buffer (BSA, BD Pharminigen), and the washed pellet was placed in 100 μl BSA. The following antibodies were added to each tube of treated cells in 2 μl volumes: CD25, CD8, CD4, (PerCP-Cy™ 5.5 Mouse Anti Human CD25, BV786 Mouse Anti-Human CD8 Clone RPA-T8, and APC-Cy™7 Mouse Anti-Human CD4 Clone SK3, all from BD Pharmingen™) with the exception of the controls: in the eGFP only sample and viability control, no antibody was added. In the single stain compensation tubes, only one antibody per tube was added.
The tubes were incubated at 4 degrees C. for 30 min, whereupon 400 μl of stain buffer (BSA) was added, and the cells were centrifuged again. Cells were washed once with 1 mL of stain buffer and spun down again. Cell pellets were resuspended in 1 mL of stain buffer and added to pre-labeled flow tubes with cell strainer caps (Corning Falcon).
After transfection, flow cytometry was used to generate eGFP or EPO expression levels as well as MFI values for the studies. […]
After transfection, flow cytometry was used to general GFP expression levels as well as MFI values for the studies.
Ionizable lipids of the invention, and MC3, were compared in a composition of CT10 at an N/P ratio of 10 for their ability to induce transfection as measured by MFI of labeled mRNA in T cells (as measured by flow cytometry).
T Cells were prepared and treated as previously described using negative selection and the triple activation protocol.
In order to expose the isolated and activated T cells (Day 0) to the formulated mRNA, […] media, with 1 μg/mL of Recombinant Human ApoE4 (“ApoE”) (Peprotech Inc., Montreal, Canada).
The dose of mRNA LNP was calculated based upon Ribogreen™ assay results. T cells were counted through Trypan blue (Sigma) exclusion and diluted to 500,000 cells/mL. Briefly, in a 12 well plate, 1 mL was aliquoted into each well. ApoE was added to a final concentration of 1 μg/mL in each well. Based upon the calibration, the required amount of mRNA LNP was added (day 3 to 7), and the plate incubated for 48 hours.

C57BL/6 mice = assay: In vivo delivery of EPO-encoded mRNA LNP via intravenous route, serum EPO ELISA; set-up: key to EPO Protein expression: IV in mice: *: The number of asterix symbols indicates protein expression levels interpreted by the inventors from quantitative data; **: The number of asterix symbols indicates protein expression levels interpreted by the inventors from quantitative data; ***: The number of asterix symbols indicates protein expression levels interpreted by the inventors from quantitative data; ****: The number of asterix symbols indicates protein expression levels interpreted by the inventors from quantitative data; *****: The number of asterix symbols indicates protein expression levels interpreted by the inventors from quantitative data; *******: The number of asterix symbols indicates protein expression levels interpreted by the inventors from quantitative data; details: for EPO Protein expression: IV in mice: qualitative grade interpreted from quantitative data
Source text: Lipid Nanoparticles with the composition IL/DSPC/Cholesterol/PEG-DMG2000 (LM 02—see Table 3) were used to encapsulate recombinant human erythropoietin (EPO) encoded mRNA with 5-moU modifications [TriLink CleanCapo 5-moU EPO mRNA L7201]. To create the LNP, lipid mix in ethanol was microfluidically mixed with a low PH buffered solution of 5-moU EPO mRNA mixer at an N/P ratio of 6 using a NanoAssemblr® Ignite™ microfluidic mixer. The microfluidically mixed particles were downstream processed using Amicon® ultra 15 10 kDa MWCO units (EMD Millipore) filtration technique. The RNA loaded lipid particles were then characterized for size, PDI and Encapsulation Efficiency (EE). Size and PDI were measured using dynamic light scattering techniques described above, and nucleic acid encapsulation efficiency was calculated using a Quant-iT RiboGreen RNA assay as described supra, modified to use hEPO mNA as the standard instead if the standard RNA in the kit. The hydrodynamic diameter of these mRNA-LNPs was ˜70 nm with a PDI in the range of 0.02 to 0.1 and an encapsulation efficiency of ˜97.8%.
Animals were handled according to the Institutional Animal Care and Use Committee ethics protocols. For experiments, 6-8 week old C57BL/6 mice were purchased from Envigo (South Kent, WA, USA). For in vivo activity, female C57BL/6 mice were treated intravenously with EPO mRNA LNPs at specified dosages of 0.5-3 mg/Kg. Samples of 50-75 μL of blood were collected 6 h post administration via saphenous vein, and at regular time intervals of 24 h or 48 h.
After harvest, blood was immediately prepared to produce serum samples using standard techniques, and stored at −80 degrees C. Briefly, after collection, the blood was allowed to clot at room temperature for 15-30 minutes. The clot was removed by centrifuging the tubes at 1000-2000×g for 10 min at 4 degrees Celsius. The clear golden-yellow color supernatant was carefully removed and transferred to sterile screw-capped clear polypropylene tubes on ice. The serum was then stored, if necessary, at −80° C. until analysis.
Samples were thawed, then analyzed at appropriate dilutions for EPO protein expression and for cytokine/chemokine levels. The total serum EPO levels were evaluated using Quantikine® IVD EPO ELISA kit (Bio-Techne, Minneapolis, MN, USA).
Following i.v administration of a 0.5 mg/Kg dose of recombinant human EPO-encoded mRNA LNPs containing ionizable lipid MC3, PNI 121 or PNI 123 using the LM02 composition at N/P 6, EPO expression levels at 6 h (upper, FIG. 6) and at 24 h (lower, FIG. 6) in C56BL/6 mice were examined; hEPO protein was measured using Quantikine® IVD® ELISA Human Erythropoietin Immunoassay protocol.

SMILES | GFP Protein expression: Human T cell (primary human T cells) | EPO Protein expression: IV in mice (C57BL/6 mice) | also measured
CC/C=C\CC1C(CC(=O)OCC(COCCCCCCCC/C=C\C/C=C\CCCCC)OCCCCCCCC/C=C\C/C=C\CCCCC)CCC1OC(=O)CCCN(C)C (stereo not shown) [PNI 101] | **** | ** | transfection efficiency in T cells from different donors (primary human T cells; CT10, N/P 10, 48 h after treatment, six donors, FIG. 2): greater than those containing MC3 in six tested donors; Cell viability (primary human T cells; CT10, N/P 10, compared to untreated cells (control)): unaffected; transfection efficiency (primary human T cells; CT10 composition, N/P 10, LNP 7 days post activation, FIG. 1): greater transfection efficiency than either DODMA or MC3
CC/C=C\CC1C(CC(=O)OCC(COCCCCCCCC/C=C\C/C=C\CCCCC)OCCCCCCCC/C=C\C/C=C\CCCCC)CCC1OC(=O)C1(C)CCN(C)CC1 (stereo not shown) [PNI 123] | *** | *** | delivering hEPO and expressing hEPO in vivo (C57BL/6 mice; i.v., 1 and 3 mg/Kg, LM02, N/P 6, 6 h and 24 h, FIG. 7): performed very well against MC3 LNP
CC/C=C\CC1C(CC(=O)OCC(COCCCCCCCC/C=C\C/C=C\CCCCC)OCCCCCCCC/C=C\C/C=C\CCCCC)CCC1OC(=O)C1CCN(C)CC1 (stereo not shown) [PNI 132] | ******* | *** | transfecting T cells in vitro, Mean Fluorescence Intensity (MFI) (primary human T cells; CT10 composition): substantially as good or better than MC3
CC/C=C\CC1C(CC(=O)OC(CCCCCCCCC2CC2CCCCCCCC)CCCCCCCCC2CC2CCCCCCCC)CCC1OC(=O)CCCN(C)C (stereo not shown) [PNI 516] | ***** | **** | serum rhEPO expression level (C57BL/6 mice; i.v., 0.5 mg/Kg, FIG. 8): on par with MC3
CC/C=C\CC1C(CC(=O)OCC(COCCCCCCCC/C=C\C/C=C\CCCCC)OCCCCCCCC/C=C\C/C=C\CCCCC)CCC1OC(=O)CCCN(CC)CC (stereo not shown) [PNI 542] | ***** | *** | –
CC/C=C\CC1C(CC(=O)OCC(COCCCCCCCCC2CC2CCCCCCCC)OCCCCCCCCC2CC2CCCCCCCC)CCC1OC(=O)CCN(C)C (stereo not shown) [PNI 544] | *** | *** | –
CCCCCCCCC1CC1CCCCCCCCOCC(COC(=O)CC1CCC(OC(=O)CCCN(C)C)C1CC1CC1CC)OCCCCCCCCC1CC1CCCCCCCC (stereo not shown) [PNI 545] | ***** | *** | –
CCCCCCCCC1CC1CCCCCCCCOCC(COC(=O)CC1CCC(OC(=O)CCN(C)C)C1CC1CC1CC)OCCCCCCCCC1CC1CCCCCCCC (stereo not shown) [PNI 546] | * | * | –
CC/C=C\CC1C(CC(=O)OC(CCCCCCCCC2CC2CCCCCCCC)CCCCCCCCC2CC2CCCCCCCC)CCC1OC(=O)CCN(C)C (stereo not shown) [PNI 549] | ** | *** | –
CC/C=C\CC1C(CC(=O)OCCC(CCCCCCCC)OC(=O)C(CCCCCC)CCCCCCCC)CCC1OC(=O)CCN(C)C (stereo not shown) [PNI 554] | *** | *** | –
CC/C=C\CC1C(CC(=O)OCC(COCCCCCCCC/C=C\C/C=C\CCCCC)OCCCCCCCC/C=C\C/C=C\CCCCC)CCC1OC(=O)CC1CCN(C)C1 (stereo not shown) [PNI 557] | *** | ** | –
CC/C=C\CC1C(CC(=O)OCC(COCCCCCCCC/C=C\C/C=C\CCCCC)OCCCCCCCC/C=C\C/C=C\CCCCC)CCC1OC(=O)CCCN1CCCC1 (stereo not shown) [PNI 558] | * | *** | –
CC/C=C\CC1C(CC(=O)OCC(COCCCCCCCC/C=C\C/C=C\CCCCC)OCCCCCCCC/C=C\C/C=C\CCCCC)CCC1OC(=O)CC1CCCCN1C (stereo not shown) [PNI 559] | ** | *** | –
CC/C=C\CC1C(CC(=O)OC(CCCCCCCCC2CC2CCCCCCCC)CCCCCCCCC2CC2CCCCCCCC)CCC1OC(=O)C1(C)CCN(C)CC1 (stereo not shown) [PNI 560] | **** | **** | –
CC/C=C\CC1C(CC(=O)OCCC(CCCCCCCC)OC(=O)C(CCCCCC)CCCCCCCC)CCC1OC(=O)C1(C)CCN(C)CC1 (stereo not shown) [PNI 565] | ******* | *** | transfecting T cells in vitro, Mean Fluorescence Intensity (MFI) (primary human T cells; CT10 composition): substantially as good or better than MC3
